Data reported in ChEMBL document CHEMBL3045200, “Design, synthesis of some 2,6,9-trisubstituted purinyl thioureido derivatives and evaluation of antimicrobial activity” (2012).
Converted amounts (≈) assume the structure as drawn.

What was measured:
Type in all cases: functional
Aspergillus niger = assay: Antifungal activity against Aspergillus niger by broth serial microdilution method
Salmonella typhi = assay: Antibacterial activity against Salmonella enterica subsp. enterica serovar Typhi after 24 hr by broth serial microdilution method
Bacillus subtilis = assay: Antibacterial activity against Bacillus subtilis after 24 hr by broth serial microdilution method
Klebsiella pneumoniae = assay: Antibacterial activity against Klebsiella pneumoniae after 24 hr by broth serial microdilution method
Staphylococcus aureus = assay: Antibacterial activity against Staphylococcus aureus after 24 hr by broth serial microdilution method

Row | Structure (SMILES) | MIC (Aspergillus niger) [µM] | MIC (Salmonella typhi) [µM] | MIC (Bacillus subtilis) [µM] | MIC (Klebsiella pneumoniae) [µM] | MIC (Staphylococcus aureus) [µM]
1 | Nc1nc(NCC(=O)NC(=S)Nc2nc3ccc(F)cc3s2)c2ncn(S(=O)(=O)c3ccccc3)c2n1 | 360 (≈ 201 µg/mL) | 360 (≈ 201 µg/mL) | 360 (≈ 201 µg/mL) | 180 (≈ 100 µg/mL) | 530 (≈ 296 µg/mL)
2 | Nc1nc(NCC(=O)NC(=S)Nc2nc3cc([N+](=O)[O-])ccc3s2)c2ncn(S(=O)(=O)c3ccccc3)c2n1 | 510 (≈ 298 µg/mL) | 510 (≈ 298 µg/mL) | 510 (≈ 298 µg/mL) | 510 (≈ 298 µg/mL) | 510 (≈ 298 µg/mL)
3 | Nc1nc(NCC(=O)NC(=S)Nc2nc3ccccc3s2)c2ncn(S(=O)(=O)c3ccccc3)c2n1 | 550 (≈ 297 µg/mL) | 560 (≈ 302 µg/mL) | 1290 (≈ 696 µg/mL) | 550 (≈ 297 µg/mL) | 560 (≈ 302 µg/mL)
4 | COc1ccc2sc(NC(=S)NC(=O)CNc3nc(N)nc4c3ncn4S(=O)(=O)c3ccccc3)nc2c1 | 350 (≈ 199 µg/mL) | 350 (≈ 199 µg/mL) | 350 (≈ 199 µg/mL) | 530 (≈ 302 µg/mL) | 530 (≈ 302 µg/mL)
5 | Nc1nc(NCC(=O)NC(=S)Nc2nc3ccc(Cl)cc3s2)c2ncn(S(=O)(=O)c3ccccc3)c2n1 | 350 (≈ 201 µg/mL) | 530 (≈ 304 µg/mL) | 350 (≈ 201 µg/mL) | 350 (≈ 201 µg/mL) | 520 (≈ 299 µg/mL)
6 | Cc1ccc2nc(NC(=S)NC(=O)CNc3nc(N)nc4c3ncn4S(=O)(=O)c3ccccc3)sc2c1 | 540 (≈ 299 µg/mL) | 530 (≈ 293 µg/mL) | 540 (≈ 299 µg/mL) | 540 (≈ 299 µg/mL) | 540 (≈ 299 µg/mL)
7 | Nc1nc(NCC(=O)NC(=S)Nc2nc3ccc([N+](=O)[O-])cc3s2)c2ncn(S(=O)(=O)c3ccccc3)c2n1 | 510 (≈ 298 µg/mL) | 510 (≈ 298 µg/mL) | 510 (≈ 298 µg/mL) | 510 (≈ 298 µg/mL) | 510 (≈ 298 µg/mL)
8 | COc1ccc2nc(NC(=S)NC(=O)CNc3nc(N)nc4c3ncn4S(=O)(=O)c3ccccc3)sc2c1 | 180 (≈ 103 µg/mL) | 540 (≈ 308 µg/mL) | 180 (≈ 103 µg/mL) | 350 (≈ 199 µg/mL) | 350 (≈ 199 µg/mL)
9 | CC1(C)S[C@@H]2[C@H](NC(=O)[C@H](N)c3ccccc3)C(=O)N2[C@H]1C(=O)O [AMPICILLIN] | – | 200 (≈ 69.9 µg/mL) | 270 (≈ 94.3 µg/mL) | 130 (≈ 45.4 µg/mL) | 130 (≈ 45.4 µg/mL)
10 | Nc1nc(NCC(=O)NC(=S)Nc2nc3c(Cl)cccc3s2)c2ncn(S(=O)(=O)c3ccccc3)c2n1 | 350 (≈ 201 µg/mL) | 350 (≈ 201 µg/mL) | 350 (≈ 201 µg/mL) | 170 (≈ 97.6 µg/mL) | 350 (≈ 201 µg/mL)
11 | OC(Cn1cncn1)(Cn1cncn1)c1ccc(F)cc1F [FLUCONAZOLE] | 350 (≈ 107 µg/mL) | – | – | – | –
12 | Nc1nc(NCC(=O)NC(=S)Nc2nc3c([N+](=O)[O-])cccc3s2)c2ncn(S(=O)(=O)c3ccccc3)c2n1 | 510 (≈ 298 µg/mL) | 510 (≈ 298 µg/mL) | 510 (≈ 298 µg/mL) | 510 (≈ 298 µg/mL) | 510 (≈ 298 µg/mL)
13 | O=C(O)c1cn(C2CC2)c2cc(N3CCNCC3)c(F)cc2c1=O [CIPROFLOXACIN] | – | 190 (≈ 63 µg/mL) | 250 (≈ 82.8 µg/mL) | 120 (≈ 39.8 µg/mL) | 190 (≈ 63 µg/mL)
